Test results: PubChem BioAssay AID1221 (NMMLSC, 2008)
Activity calls are given as the source filed them.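 The calls were made as follows: active = summed score of at least 50 from binding left at 10 µM, EC50 band and curve drop size; inactive = the rest.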

Biological target: Estrogen receptor beta (Homo sapiens) (UniProt Q92731)
Assay: competitive ligand binding to estrogen receptor beta – cell-based, Cos7 ERbeta-GFP, E2-Alexa633, flow cytometry, dose response (AID 1221)
Conditions: for percent ligand binding remaining: at 10 µM (top of the series)

Sequence of Estrogen receptor beta (Homo sapiens) (Q92731 whole entry, looked up): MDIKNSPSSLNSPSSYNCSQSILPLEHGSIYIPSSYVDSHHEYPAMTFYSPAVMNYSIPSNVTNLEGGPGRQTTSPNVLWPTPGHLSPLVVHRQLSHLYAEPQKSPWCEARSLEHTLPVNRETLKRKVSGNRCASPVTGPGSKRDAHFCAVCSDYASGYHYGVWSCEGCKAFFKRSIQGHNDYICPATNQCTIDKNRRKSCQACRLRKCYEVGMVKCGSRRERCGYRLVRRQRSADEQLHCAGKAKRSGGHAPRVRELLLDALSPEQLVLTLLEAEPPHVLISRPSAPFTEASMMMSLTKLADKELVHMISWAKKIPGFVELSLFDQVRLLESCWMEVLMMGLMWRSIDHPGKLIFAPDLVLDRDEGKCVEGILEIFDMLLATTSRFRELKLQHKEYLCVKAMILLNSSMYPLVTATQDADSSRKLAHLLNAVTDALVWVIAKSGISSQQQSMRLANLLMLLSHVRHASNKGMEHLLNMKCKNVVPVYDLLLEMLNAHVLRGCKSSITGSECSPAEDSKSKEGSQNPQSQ

Structure (SMILES)	percent ligand binding remaining	EC50
C[C@]12CC[C@@H]3c4ccc(O)cc4[C@@H](O)C[C@H]3[C@@H]1CC[C@@H]2O	inactive	
Cc1ccc(-n2c(=O)c(C#N)cc3c(=O)n4cccc(C)c4nc32)cc1	inactive	
Cc1cc(C)c2c(c1)NC(c1cc3c(cc1Br)OCO3)C1CC=CC21 (stereo not drawn)	inactive	
O=S(=O)(NCCc1csc(-c2cccnc2)n1)c1ccc(Cl)s1	inactive	
COc1ccc(/C=N/NC(=O)c2nc(-c3ccccc3)cc(-c3ccccc3)n2)cc1O	inactive	
Cn1ccnc1SCC(=O)Nc1ccc2nc(SCC(=O)NC3CC3)sc2c1	inactive	
C[C@H]1CCC[C@@H](O)CCC/C=C/c2cc(O)cc(O)c2C(=O)O1	inactive	
O=C(O)c1ccc2c(c1)C1C(Cl)C(Sc3ccccc3[N+](=O)[O-])CC1C(c1cccc([N+](=O)[O-])c1)N2 (stereo not drawn)	inactive	
O=C(Cc1cccs1)Nc1ccc(S(=O)(=O)Nc2ncccn2)cc1	inactive	
Cc1cc(C)cc(OCC(=O)Nc2ccc(N3CCCC3)cc2)c1	inactive	
CCc1nc2sc3ccccc3c(=O)c2c(=O)n1Cc1ccco1	inactive	
CCNC(=O)c1ccc2c(c1)C1C3CCC(C3)C1C(c1ccccc1)N2 (stereo not drawn)	inactive	
Brc1cc2c(cc1C1Nc3ccccc3C3C=CCC31)OCO2 (stereo not drawn)	inactive	
N=C1C(c2nc3ccccc3[nH]2)=C(O)CN1c1ccc(CC(=O)O)cc1	inactive	
Cc1nn(-c2ccccc2)c(/N=C/c2ccc(O)cc2)c1-c1ccccc1	inactive	
Oc1ccc(-c2nc(-c3ccc(O)c(O)c3)cs2)cc1	inactive	
CCC(=O)Oc1ccc(/C(CC)=C(\CC)c2ccc(OC(=O)CC)cc2)cc1	32.1%	

Structure (SMILES)	percent ligand binding remaining	EC50
Cc1nnc(SCC(=O)NC(=O)NCc2ccco2)n1Cc1ccccc1	inactive	
Oc1ccc(-c2nc3ccc4ccccc4c3c3c2CCC3)cc1O		> 10 µM (inactive)
C/C=C(/C(=C/C)c1ccc(O)cc1)c1ccc(O)cc1	45.1%	
COc1ccc(NC(=O)C(c2ccccc2)N(C)C(=O)c2ccc(=O)[nH]c2)cc1 (stereo not drawn)	inactive	
Cc1cc(C(=O)Nc2sc3c(c2C#N)CCC3)no1	inactive	
CC(=O)c1ccc2c(c1)C1C=CCC1C(c1ccc(S(=O)(=O)N3CCOCC3)cc1)N2 (stereo not drawn)	inactive	
COc1ccc(C(=O)N/N=C(\C)c2ccc3c(c2)C2C=CCC2C(c2ccccc2)N3)cc1 (stereo not drawn)	32.7%	
COc1cccc(NS(=O)(=O)c2ccc3c(c2)C2C=CCC2C(c2ccc(C(=O)O)cc2)N3)c1 (stereo not drawn)	inactive	
O=C1NC(c2ccc(Br)cc2)Nc2sc3c(c21)CCC3 (stereo not drawn)	inactive	
CC(=O)Nc1ccc(OC(=O)CC2SC(=O)NC2=O)cc1 (stereo not drawn)	inactive	
Cc1cc([N+](=O)[O-])c2c(c1C)C1C=CCC1C(c1ccccn1)N2 (stereo not drawn)	inactive	
COc1cccc(C2Nc3c(F)cc(Br)cc3C3C=CCC32)c1OC (stereo not drawn)	inactive	
CCCCCCNC(=O)c1cc(-c2ccco2)nc2ccccc12	inactive	
COc1nc(-c2ccc(Cl)cc2)ccc1-c1noc(-c2ccco2)n1	inactive	
O=C1/C(=C\c2ccco2)SC(=S)N1c1ccc(O)cc1	inactive	
CCn1c(=NC(=O)c2ccc(N3C(=O)CCC3=O)cc2)sc2c(OC)ccc(OC)c21	inactive	
